Experimental data: patent publication US8013156B2 (Exelixis, Inc., priority 2003, dated 2011)

target: Tie-2 (Homo sapiens, UniProt Q02763); assay: Tie-2 tyrosine kinase activity assay (luciferase/luciferin ATP consumption with pEY substrate, or 33P-ATP incorporation); assay type: biochemical; conditions: human enzyme Tie-2
Protocol: One measure of inhibition is Ki. […] The Ki for a compound is determined from the IC50 based on three assumptions. First, only one compound molecule binds to the enzyme and there is no cooperativity. […] Third, the enzymatic rate of the enzyme-inhibitor complex is zero. The rate data (i.e. compound concentration) are fitted to the equation:
[formula] where V is the observed rate, Vmax, is the rate of the free enzyme, I0 is the inhibitor concentration, E0 is the enzyme concentration, and Kd is the dissociation constant of the enzyme-inhibitor complex.
Tyrosine kinase activity is determined by 1) measurement of kinase-dependent ATP consumption by in the presence of a generic substrate such as […], tyrosine (pEY), by luciferase/luciferin-mediated chemiluminescence or; 2) incorporation of radioactive phosphate derived from ^33P-ATP into a generic substrate which has been adsorbed onto the well surface of polystyrene microtiter plates. Phosphorylated substrate products are quantified by scintillation spectrometry.
Inhibition is indicated as IC50 with following key: A=IC50 less than 50 nM, B=IC50 greater than 50 nM, but less than or equal to 1000 nM, C=IC50 greater than 1000 nM, but less than 10,000 nM, D=IC50 10,000 nM or greater, and “-”=no data available. The abbreviation for human enzyme, Tie-2, is defined as tyrosine kinase with immunoglobulin and EGF repeats.

Sequence of Tie-2 (Q02763 23-1124): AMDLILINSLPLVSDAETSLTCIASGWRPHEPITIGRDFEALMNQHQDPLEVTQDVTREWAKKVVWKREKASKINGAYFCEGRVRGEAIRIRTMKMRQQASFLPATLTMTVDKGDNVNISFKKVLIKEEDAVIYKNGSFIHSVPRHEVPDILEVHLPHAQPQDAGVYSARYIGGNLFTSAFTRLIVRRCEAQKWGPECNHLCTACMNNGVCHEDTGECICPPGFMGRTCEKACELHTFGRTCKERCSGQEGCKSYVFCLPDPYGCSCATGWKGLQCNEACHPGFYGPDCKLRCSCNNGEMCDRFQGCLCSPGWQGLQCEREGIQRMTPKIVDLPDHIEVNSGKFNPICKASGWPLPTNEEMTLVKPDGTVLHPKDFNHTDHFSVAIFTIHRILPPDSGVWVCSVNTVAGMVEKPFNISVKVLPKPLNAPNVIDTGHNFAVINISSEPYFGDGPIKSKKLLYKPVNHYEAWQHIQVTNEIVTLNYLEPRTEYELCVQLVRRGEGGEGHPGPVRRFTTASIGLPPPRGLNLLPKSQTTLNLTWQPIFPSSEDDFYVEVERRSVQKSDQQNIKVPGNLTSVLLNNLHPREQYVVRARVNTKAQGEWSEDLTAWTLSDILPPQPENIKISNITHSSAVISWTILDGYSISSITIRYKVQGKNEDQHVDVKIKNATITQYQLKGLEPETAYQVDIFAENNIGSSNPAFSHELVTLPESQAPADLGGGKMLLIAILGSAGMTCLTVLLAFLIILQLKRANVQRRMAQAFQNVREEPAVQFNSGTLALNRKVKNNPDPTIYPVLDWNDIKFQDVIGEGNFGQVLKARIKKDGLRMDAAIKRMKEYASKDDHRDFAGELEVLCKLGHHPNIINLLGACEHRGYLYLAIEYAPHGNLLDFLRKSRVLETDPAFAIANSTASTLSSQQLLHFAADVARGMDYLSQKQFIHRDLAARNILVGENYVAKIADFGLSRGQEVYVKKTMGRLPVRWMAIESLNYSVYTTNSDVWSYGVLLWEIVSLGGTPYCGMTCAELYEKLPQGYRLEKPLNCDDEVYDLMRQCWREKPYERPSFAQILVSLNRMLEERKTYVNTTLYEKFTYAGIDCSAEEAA

IC50 [nM]	Structure (SMILES)
≥ 10000	Nc1nccc(COc2nsnc2N2CCN(C(=O)Nc3ccc(F)c(F)c3)CC2)n1 [Example 265, 4-(4-{[(2-aminopyrimidin-4-yl)methyl]oxy}-1,2,5-thiadiazol-3-yl)-N-(3,4-difluorophenyl)piperazine-1-carboxamide]
< 50	Nc1nccc(COc2nsnc2N2CCN(C(=O)Nc3cccc(OC(F)(F)F)c3)CC2)n1 [Example 258, 4-(4-{[(2-aminopyrimidin-4-yl)methyl]oxy}-1,2,5-thiadiazol-3-yl)-N-{3-[(trifluoromethyl)oxy]phenyl}piperazine-1-carboxamide]
< 50	O=C(Nc1cc(COc2nsnc2N2CCN(C(=O)Nc3cc(C(F)(F)F)cc(C(F)(F)F)c3)CC2)ccn1)OCCN1CCCC1 [Example 140, 2-pyrrolidin-1-ylethyl {4-[({4-[4-({[3,5-bis(trifluoromethyl)phenyl]amino}carbonyl)piperazin-1-yl]-1,2,5-thiadiazol-3-yl}oxy)methyl]pyridin-2-yl}carbamate]
50 to 1000	CC1CN(c2nccnc2OCc2ccncc2)C(C)CN1C(=O)Nc1cccc(C(F)(F)F)c1 (stereo not drawn) [Example 79, 2,5-dimethyl-4-{3-[(pyridin-4-ylmethyl)oxy]pyrazin-2-yl}-N-[3-(trifluoromethyl)phenyl]piperazine-1-carboxamide]
< 50	O=C(Nc1cc(C(F)(F)F)cc(C(F)(F)F)c1)N1CCN(c2ccccc2OCc2ccncc2)CC1 [Example 72, N-[3,5-bis(trifluoromethyl)phenyl]-4-{2-[(pyridin-4-ylmethyl)oxy]phenyl}piperazine-1-carboxamide]
≥ 10000	Nc1nccc(COc2nsnc2N2CCN(C(=O)Cc3ccc4ccccc4c3)CC2)n1 [Example 280, 4-[({4-[4-(naphthalen-2-ylacetyl)piperazin-1-yl]-1,2,5-thiadiazol-3-yl}oxy)methyl]pyrimidin-2-amine]
≥ 10000	O=C(O)c1cc(COc2nsnc2N2CCN(C(=O)Nc3cc(C(F)(F)F)cc(C(F)(F)F)c3)CC2)ccn1 [Example 139, 4-[({4-[4-({[3,5-bis(trifluoromethyl)phenyl]amino}carbonyl)piperazin-1-yl]-1,2,5-thiadiazol-3-yl}oxy)methyl]pyridine-2-carboxylic acid]
< 50	CCc1cc(NC(=O)N2CCN(c3nccnc3OCc3ccnc(N)n3)CC2)ccc1F [Example 241, 4-(3-{[(2-aminopyrimidin-4-yl)methyl]oxy}pyrazin-2-yl)-N-(3-ethyl-4-fluorophenyl)piperazine-1-carboxamide]
< 50	Nc1nccc(COc2nccnc2N2CCN(C(=O)Nc3cccc(C(F)(F)F)c3)CC2)n1 [Example 229, 4-(3-{[(2-aminopyrimidin-4-yl)methyl]oxy}pyrazin-2-yl)-N-[3-(trifluoromethyl)phenyl]piperazine-1-carboxamide]
< 50	CC(Oc1cccnc1N1CCN(C(=O)Nc2cc(C(F)(F)F)cc(C(F)(F)F)c2)CC1)c1ccnc(N)n1 (stereo not drawn) [Example 216, 4-(3-{[1-(2-aminopyrimidin-4-yl)ethyl]oxy}pyridin-2-yl)-N-[3,5-bis(trifluoromethyl)phenyl]piperazine-1-carboxamide]
≥ 10000	O=C(Nc1cc(C(F)(F)F)cc(C(F)(F)F)c1)N1CCN(c2nsnc2OCCN2CCOCC2)CC1 [Example 14]
< 50	CCc1cc(F)cc(NC(=O)N2CCN(c3ncccc3OCc3ccnc(N)n3)CC2)c1 [Example 247, 4-(3-{[(2-aminopyrimidin-4-yl)methyl]oxy}pyridin-2-yl)-N-(3-ethyl-5-fluorophenyl)piperazine-1-carboxamide]
< 50	Nc1nccc(COc2nsnc2N2CCN(C(=O)Nc3cccc(C(F)(F)F)c3)CC2)n1 [Example 231, 4-(4-{[(2-aminopyrimidin-4-yl)methyl]oxy}-1,2,5-thiadiazol-3-yl)-N-[3-(trifluoromethyl)phenyl]piperazine-1-carboxamide]
50 to 1000	O=C(Nc1nccc(COc2nsnc2N2CCN(C(=O)Nc3cc(C(F)(F)F)cc(C(F)(F)F)c3)CC2)n1)OCCN1CCCC1 [Example 162, 2-pyrrolidin-1-ylethyl {4-[({4-[4-({[3,5-bis(trifluoromethyl)phenyl]amino}carbonyl)piperazin-1-yl]-1,2,5-thiadiazol-3-yl}oxy)methyl]pyrimidin-2-yl}carbamate]
< 50	COc1cc2nccc(COc3nsnc3N3CCN(C(=O)Nc4cc(C(F)(F)F)cc(C(F)(F)F)c4)CC3)c2cc1OC [Example 273, 4-[4-({[6,7-bis(methyloxy)quinolin-4-yl]methyl}oxy)-1,2,5-thiadiazol-3-yl]-N-[3,5-bis(trifluoromethyl)phenyl]piperazine-1-carboxamide]
< 50	Cc1ccc(OCc2ccnc(N)n2)c(N2CCN(C(=O)Nc3cc(C(F)(F)F)cc(C(F)(F)F)c3)CC2)n1 [Example 228, 4-(3-{[(2-aminopyrimidin-4-yl)methyl]oxy}-6-methylpyridin-2-yl)-N-[3,5-bis(trifluoromethyl)phenyl]piperazine-1-carboxamide]
50 to 1000	CC1CN(c2nsnc2OCc2ccncc2)CCN1C(=O)Nc1cc(C(F)(F)F)cc(C(F)(F)F)c1 (stereo not drawn) [Example 22]
50 to 1000	Nc1nccc(COc2nccnc2N2CCN(C(=O)Nc3ccccc3)CC2)n1 [Example 224, 4-(3-{[(2-aminopyrimidin-4-yl)methyl]oxy}pyrazin-2-yl)-N-phenylpiperazine-1-carboxamide]
50 to 1000	O=C(Nc1nccc(COc2nsnc2N2CCN(C(=O)Nc3cc(C(F)(F)F)cc(C(F)(F)F)c3)CC2)n1)OCCN1CCCCC1 [Example 163, 2-piperidin-1-ylethyl {4-[({4-[4-({[3,5-bis(trifluoromethyl)phenyl]amino}carbonyl)piperazin-1-yl]-1,2,5-thiadiazol-3-yl}oxy)methyl]pyrimidin-2-yl}carbamate]
< 50	Nc1nccc(COc2cccnc2N2CCN(C(=O)Nc3cc(C(F)(F)F)cc(C(F)(F)F)c3)CC2)n1 [Example 142, 4-(3-{[(2-aminopyrimidin-4-yl)methyl]oxy}pyridin-2-yl)-N-[3,5-bis(trifluoromethyl)phenyl]piperazine-1-carboxamide]
< 50	CCc1ccc(F)c(NC(=O)N2CCN(c3ncccc3OCc3ccnc(N)n3)CC2)c1 [Example 180, 4-(3-{[(2-aminopyrimidin-4-yl)methyl]oxy}pyridin-2-yl)-N-(5-ethyl-2-fluorophenyl)piperazine-1-carboxamide]
1000 to 10000	O=C(Nc1cc(C(F)(F)F)cc(C(F)(F)F)c1)N1CCN(c2nsnc2OCc2ccnc(F)c2)CC1 [Example 82, N-[3,5-bis(trifluoromethyl)phenyl]-4-(4-{[(2-fluoropyridin-4-yl)methyl]oxy}-1,2,5-thiadiazol-3-yl)piperazine-1-carboxamide]
< 50	CCc1cc(Cl)cc(NC(=O)N2CCN(c3ncccc3OCc3ccnc(N)n3)CC2)c1 [Example 179, 4-(3-{[(2-aminopyrimidin-4-yl)methyl]oxy}pyridin-2-yl)-N-(3-chloro-5-ethylphenyl)piperazine-1-carboxamide]
< 50	CCc1cccc(NC(=O)N2CCN(c3nccnc3OCc3ccncc3)CC2)c1 [Example 92, N-(3-ethylphenyl)-4-{3-[(pyridin-4-ylmethyl)oxy]pyrazin-2-yl}piperazine-1-carboxamide]
